Data on 6 compounds can be found in patent US20190119298A1, “FUSED 3-PHENYLTETRAMIC ACID DERIVATIVES HAVING HERBICIDAL ACTION” (Bayer CropScience Aktiengesellschaft, priority 2016, published 2019).

Assay type in all cases: in vivo
Assay [1] deals with Avena fatua. Briefly: Pre-emergence herbicidal effect. To be noted: 320 g/ha, scored visually after 3 weeks vs untreated controls, 100% = plants have died. The text has this:
(§1) Seeds of monocotyledonous and dicotyledonous weed plants and crop plants are laid out in sandy loam soil in wood-fibre pots and covered with soil. The compounds of the invention, formulated in the form of wettable powders (WP) or as emulsion concentrates (EC), are then applied to the surface of the covering soil as aqueous suspension or emulsion at a water application rate equating to 600 to 800 L/ha with addition of 0.2% wetting agent. After the treatment, the pots are placed in a greenhouse and kept under good growth conditions for the trial plants. The damage to the test plants is scored visually after a test period of 3 weeks by comparison with untreated controls (herbicidal activity in percent (%): 100% activity=the plants have died, 0% activity=like control plants). AVEFA: Avena fatua

The test system of assay [2] is Echinochloa crus-galli. Nature of the assay: Post-emergence herbicidal effect. The note with it: one-leaf stage, 320 g/ha, assessed visually after about 3 weeks, 100% = plants have died. The method, then: (§2) ECHCG: Echinochloa crus-galli Seeds of monocotyledonous and dicotyledonous weed and crop plants are laid out in sandy loam soil in wood-fibre pots, covered with soil and cultivated in a greenhouse under good growth conditions. 2 to 3 weeks after sowing, the test plants are treated at the one-leaf stage. The compounds of the invention, formulated in the form of wettable powders (WP) or as emulsion concentrates (EC), are then sprayed onto the green parts of the plants as aqueous suspension or emulsion at a water application rate equating to 600 to 800 L/ha with addition of 0.2% wetting agent. After the test plants have been left to stand in the greenhouse under optimal growth conditions for about 3 weeks, the action of the preparations is assessed visually in comparison to untreated controls (herbicidal action in percent (%): 100% activity=the plants have died, 0% activity=like control plants).

Assay [3] concerns Lolium multiflorum. Briefly: Pre-emergence herbicidal effect. To be noted: 320 g/ha, scored visually after 3 weeks vs untreated controls, 100% = plants have died.
Source text: as §1, with “LOLMU: Lolium multiflorum” for “AVEFA: Avena fatua”

The test system of assay [4] is Avena fatua. Nature of the assay: Post-emergence herbicidal effect. To be noted: one-leaf stage, 320 g/ha, assessed visually after about 3 weeks, 100% = plants have died. The procedure:
as §2, with “AVEFA: Avena fatua” for “ECHCG: Echinochloa crus-galli”

For assay [5], the system named is Lolium multiflorum. Nature of the assay: Post-emergence herbicidal effect. To be noted: one-leaf stage, 320 g/ha, assessed visually after about 3 weeks, 100% = plants have died. The method, then: as §2, with “LOLMU: Lolium multiflorum” for “ECHCG: Echinochloa crus-galli”
In assay [6] the test system is Echinochloa crus-galli. Briefly: Pre-emergence herbicidal effect. To be noted: 320 g/ha, scored visually after 3 weeks vs untreated controls, 100% = plants have died.
Source text: as §1, with “ECHCG: Echinochloa crus-galli” for “AVEFA: Avena fatua”

In assay [7] the test system is Alopecurus myosuroides. Briefly: Post-emergence herbicidal effect. The note with it: one-leaf stage, 320 g/ha, assessed visually after about 3 weeks, 100% = plants have died. The method, then: as §2, with “ALOMY: Alopecurus myosuroides” for “ECHCG: Echinochloa crus-galli”
Assay [8] relates to Setaria viridis. Briefly: Pre-emergence herbicidal effect. The note with it: 320 g/ha, scored visually after 3 weeks vs untreated controls, 100% = plants have died.
Source text: as §1, with “SETVI: Setaria viridis” for “AVEFA: Avena fatua”

For assay [9], the system named is Alopecurus myosuroides. Briefly: Pre-emergence herbicidal effect. The note with it: 320 g/ha, scored visually after 3 weeks vs untreated controls, 100% = plants have died.
Source text: as §1, with “ALOMY: Alopecurus myosuroides” for “AVEFA: Avena fatua”

For assay [10], the system named is Setaria viridis. Briefly: Post-emergence herbicidal effect. To be noted: one-leaf stage, 320 g/ha, assessed visually after about 3 weeks, 100% = plants have died. The procedure: as §2, with “SETVI: Setaria viridis” for “ECHCG: Echinochloa crus-galli”

`CCc1cc(Cl)cc(OC)c1C1=C(O)C2=CCOCCN2C1=O` [Ia-3-4]: in the assay on Avena fatua [1], the “Pre-emergence action AVEFA (herbicidal activity in percent)” value is given as 80%. Further, the “Post-emergence effectiveness ECHCG (herbicidal action in percent)” value in the assay with Echinochloa crus-galli [2] is reported as 100%. The “Pre-emergence action LOLMU (herbicidal activity in percent)” value in the assay with Lolium multiflorum [3] was 90%. Besides, the “Post-emergence effectiveness AVEFA (herbicidal action in percent)” value with Avena fatua [4] was 100%. For the same compound, the “Post-emergence effectiveness LOLMU (herbicidal action in percent)” value with Lolium multiflorum [5] was 100%. Besides, the “Pre-emergence action ECHCG (herbicidal activity in percent)” value in the assay with Echinochloa crus-galli [6] is on record as 90%. Moreover, the “Post-emergence effectiveness ALOMY (herbicidal action in percent)” value in the assay with Alopecurus myosuroides [7] worked out at 100%. Also, the “Pre-emergence action SETVI (herbicidal activity in percent)” value with Setaria viridis [8] came out at 100%. Moreover, in the assay on Alopecurus myosuroides [9], the “Pre-emergence action ALOMY (herbicidal activity in percent)” value was 80%. Also, the “Post-emergence effectiveness SETVI (herbicidal action in percent)” value in the assay on Setaria viridis [10] came to 100%.
Turning to `CCOC(=O)OC1=C(c2c(CC)cc(C)cc2CC)C(=O)N2CCOCCC12` (stereo not drawn) [Ib-1-2], the “Pre-emergence action AVEFA (herbicidal activity in percent)” value in the assay on Avena fatua [1] was 100%. In addition, the “Post-emergence effectiveness ECHCG (herbicidal action in percent)” value in the assay with Echinochloa crus-galli [2] was determined as 100%. The “Pre-emergence action LOLMU (herbicidal activity in percent)” value with Lolium multiflorum [3] was 100%. For the same compound, in the assay with Avena fatua [4], the “Post-emergence effectiveness AVEFA (herbicidal action in percent)” value was found to be 100%. Also, in the assay on Lolium multiflorum [5], the “Post-emergence effectiveness LOLMU (herbicidal action in percent)” value is 100%. Moreover, the “Pre-emergence action ECHCG (herbicidal activity in percent)” value with Echinochloa crus-galli [6] amounted to 100%. For the same compound, in the assay on Alopecurus myosuroides [7], the “Post-emergence effectiveness ALOMY (herbicidal action in percent)” value is listed as 100%. In addition, in the assay with Setaria viridis [8], the “Pre-emergence action SETVI (herbicidal activity in percent)” value was determined as 100%. Besides, in the assay with Alopecurus myosuroides [9], the “Pre-emergence action ALOMY (herbicidal activity in percent)” value is reported as 100%. Further, the “Post-emergence effectiveness SETVI (herbicidal action in percent)” value with Setaria viridis [10] is recorded as 100%.
With `CCc1cc(C)cc(CC)c1C1=C(OC(=O)OC)C2CCOCCN2C1=O` (stereo not drawn) [Example Ib-1-1, 8-(2,6-Diethyl-4-methylphenyl)-7-oxo-1,2,4,5,7,9a-hexahydropyrrolo[1,2-d][1,4]oxazepin-9-yl methyl carbonate], in the assay with Avena fatua [1], the “Pre-emergence action AVEFA (herbicidal activity in percent)” value came out at 100%. The “Post-emergence effectiveness ECHCG (herbicidal action in percent)” value with Echinochloa crus-galli [2] was 100%. The “Pre-emergence action LOLMU (herbicidal activity in percent)” value with Lolium multiflorum [3] came to 100%. For the same compound, the “Post-emergence effectiveness AVEFA (herbicidal action in percent)” value with Avena fatua [4] was found to be 100%. Also, the “Post-emergence effectiveness LOLMU (herbicidal action in percent)” value with Lolium multiflorum [5] worked out at 100%. For the same compound, the “Pre-emergence action ECHCG (herbicidal activity in percent)” value in the assay with Echinochloa crus-galli [6] came out at 100%. Besides, the “Post-emergence effectiveness ALOMY (herbicidal action in percent)” value in the assay on Alopecurus myosuroides [7] amounted to 100%. The “Pre-emergence action SETVI (herbicidal activity in percent)” value with Setaria viridis [8] is reported as 100%. For the same compound, the “Pre-emergence action ALOMY (herbicidal activity in percent)” value in the assay on Alopecurus myosuroides [9] is on record as 100%. In addition, the “Post-emergence effectiveness SETVI (herbicidal action in percent)” value with Setaria viridis [10] turned out to be 100%.
As for `CCc1cc(C)cc(CC)c1C1=C(O)C2COCCCN2C1=O` (racemic) [Ia-2-2], the “Pre-emergence action AVEFA (herbicidal activity in percent)” value in the assay with Avena fatua [1] is on record as 90%. Moreover, the “Post-emergence effectiveness ECHCG (herbicidal action in percent)” value with Echinochloa crus-galli [2] was 100%. Besides, in the assay on Lolium multiflorum [3], the “Pre-emergence action LOLMU (herbicidal activity in percent)” value amounted to 100%. The “Post-emergence effectiveness AVEFA (herbicidal action in percent)” value with Avena fatua [4] is 100%. The “Post-emergence effectiveness LOLMU (herbicidal action in percent)” value in the assay on Lolium multiflorum [5] is 100%. Besides, the “Pre-emergence action ECHCG (herbicidal activity in percent)” value in the assay with Echinochloa crus-galli [6] was found to be 100%. The “Post-emergence effectiveness ALOMY (herbicidal action in percent)” value in the assay with Alopecurus myosuroides [7] is on record as 100%. Further, in the assay with Setaria viridis [8], the “Pre-emergence action SETVI (herbicidal activity in percent)” value was determined as 100%. Moreover, the “Pre-emergence action ALOMY (herbicidal activity in percent)” value with Alopecurus myosuroides [9] was determined as 80%. For the same compound, in the assay with Setaria viridis [10], the “Post-emergence effectiveness SETVI (herbicidal action in percent)” value stood at 100%.
For `CCc1cc(C)cc(C)c1C1=C(O)C2CCOCCN2C1=O` (stereo not drawn) [Ia-1-2], in the assay on Avena fatua [1], the “Pre-emergence action AVEFA (herbicidal activity in percent)” value is 100%. Further, the “Post-emergence effectiveness ECHCG (herbicidal action in percent)” value in the assay with Echinochloa crus-galli [2] is given as 100%. For the same compound, the “Pre-emergence action LOLMU (herbicidal activity in percent)” value in the assay on Lolium multiflorum [3] stood at 100%. For the same compound, the “Post-emergence effectiveness AVEFA (herbicidal action in percent)” value in the assay on Avena fatua [4] is listed as 100%. In addition, in the assay with Lolium multiflorum [5], the “Post-emergence effectiveness LOLMU (herbicidal action in percent)” value came out at 100%. Moreover, the “Pre-emergence action ECHCG (herbicidal activity in percent)” value with Echinochloa crus-galli [6] was found to be 100%. For the same compound, the “Post-emergence effectiveness ALOMY (herbicidal action in percent)” value in the assay on Alopecurus myosuroides [7] is listed as 100%. In addition, the “Pre-emergence action SETVI (herbicidal activity in percent)” value in the assay on Setaria viridis [8] came out at 100%. For the same compound, in the assay on Alopecurus myosuroides [9], the “Pre-emergence action ALOMY (herbicidal activity in percent)” value is 100%. The “Post-emergence effectiveness SETVI (herbicidal action in percent)” value in the assay with Setaria viridis [10] worked out at 100%.
On to `CCc1cc(Cl)cc(OC)c1C1=C(OC(=O)OC)C2CCOCCN2C1=O` (stereo not drawn) [Ib-1-16], for which, in the assay with Avena fatua [1], the “Pre-emergence action AVEFA (herbicidal activity in percent)” value is 100%. In the assay on Echinochloa crus-galli [2], the “Post-emergence effectiveness ECHCG (herbicidal action in percent)” value was 100%. For the same compound, the “Pre-emergence action LOLMU (herbicidal activity in percent)” value in the assay on Lolium multiflorum [3] amounted to 100%. Besides, the “Post-emergence effectiveness AVEFA (herbicidal action in percent)” value in the assay on Avena fatua [4] is given as 100%. Moreover, in the assay on Lolium multiflorum [5], the “Post-emergence effectiveness LOLMU (herbicidal action in percent)” value stood at 100%. Further, the “Pre-emergence action ECHCG (herbicidal activity in percent)” value with Echinochloa crus-galli [6] is 100%. For the same compound, the “Post-emergence effectiveness ALOMY (herbicidal action in percent)” value in the assay with Alopecurus myosuroides [7] worked out at 100%. Also, in the assay with Setaria viridis [8], the “Pre-emergence action SETVI (herbicidal activity in percent)” value was determined as 100%. Further, the “Pre-emergence action ALOMY (herbicidal activity in percent)” value with Alopecurus myosuroides [9] is on record as 100%. The “Post-emergence effectiveness SETVI (herbicidal action in percent)” value in the assay on Setaria viridis [10] came to 100%.
